Test results reported in patent publication US8940798B2, “Compounds useful for treating and/or preventing disease-associated bone loss” (Centre National de al Recherche Scientifique (CNRS), priority 2011, dated 2015).

Columns and labels:
[1] = tested on: C57B1/6 mice; experiment: Ovariectomy-induced bone loss model in C57B1/6 mice; assay type: in vivo, mouse; details: 5 days per week for 28 days
Description: After menopause, a decrease in bone density due to an increase in bone resorption, leading to osteoporosis, is observed. The decrease in estrogen secretion causes i) an increase in the osteoclast level due to the decrease in secretion of OPG, a RANKL inhibitor, by the osteoblasts and ii) an increase in the lifetime of the osteoclasts due to a decrease in the production of FasL, a promoter of apoptosis, by these cells. The ovariectomy model in the mouse is classically used as a model for this physiological disturbance (see FIG. 15).
Protocol experiment 1: 8 C57B1/6 mice underwent ovariectomy (OVX) and 4 mice were operated on without ablation of the ovaries (SHAM). After this operation, 4 OVX mice received the C21 compound (test group), 5 mg/d/kg, 5 days per week for 28 days, as a retro-orbital sinus injection, and the other 4 OVX mice (control group) and the SHAM group received PBS.
Protocol experiment 2: 16 C57B1/6 mice underwent ovariectomy (OVX) and 15 mice were operated on without ablation of the ovaries (SHAM). After this operation, 8 OVX mice received the C21 compound (test group), 15 mg/d/kg solubilized in 100 μl of 5% EtOH and 4% solutol, 5 days per week for 28 days, as an intraperitoneal injection, and the other 8 OVX mice (control group) and the SHAM group received 100 μl of 5% ethanol/4% solutol vehicle solution. […]

[2] = tested on: osteoclasts (OCs); experiment: OC survival assay (number of OCs after 24-hour incubation); assay type: cell-based; details: number of OCs as % of DMSO control
Description: FIGS. 5A-5H: Inhibition of bone resorption by an inhibitor of Rac1 activation by Dock5. (FIG. 5A) Principle of the yeast exchange assay used to identify inhibitors of Dock5 exchange activity. Wild type Rac1 is fused to LexA DNA binding domain (LexA) and its effector Kinectin (Kin) to GAL4 activation domain (GAD). Expression of Dock5-DHR2 activates Rac1, which binds to kinectin, leading to the expression of his3 and then yeast […] for histidine. Inhibitors of Dock5-DHR2 revert Rac1 activation. (FIG. 5B) Growth curves of yeasts expressing Rac1 and Kinectin with (open triangles) and without (dots) Dock5-DHR2, in medium complemented (plain lines) or not (dotted lines) with histidine. […] (FIG. 5F) Number of OCs (OC) after a 24-hour incubation with the indicated concentrations of C21, expressed as a % of DMSO control (0 μM C21). […]
Preparations were mounted in Mowiol 40-88 (Sigma) and imaged with Zeiss Axioimager Z2 microscope with Coolsnap HQ2 camera for fluorescence and Coolsnap color Cf camera using Zeiss 40× PLAN-NEOFLUAR 1.3 oil DIC or Zeiss 20× PLAN-APOCHROMAT 0.8 or Zeiss 10× EC PLAN-NEOFLUAR 0.3. […] OC circularity was measured using ImageJ. OCs were counted manually in 96-well plates stained to reveal DNA and TRAP activity, except in FIG. 5F where they were counted automatically using a Cellomics Arrayscan VTI (Thermo Scientific). […]

[3] = tested on: osteoclasts (OCs); experiment: TRAP staining of OCs to ascertain absence of toxicity; assay type: cell-based; details: 25 μM C21 vs DMSO (not shown)
Description: OCs were fixed and stained for DNA, actin or vinculin or TRAP as described (16,19).
To confirm the essential role of Rac1 activation by Dock5 in the resorption process, it was sought for a chemical inhibitor of Dock5 exchange activity active in cell cultures. The inventors therefore took advantage of a yeast-based assay that they have developed (BLANGY et al., Identification of TRIO-GEFD1 chemical inhibitors using the yeast exchange assay, 2006, Biol Cell 98(9):511-22 and BOUQUIER et al. A cell active chemical GEF inhibitor selectively targets the Trio/RhoG/Rac1 signaling pathway, 2009, Chem Biol 16(6):657-66.). They constructed a yeast strain where Rac1 activation by Dock5 DHR2 induces the expression of the his3 reporter gene (FIG. 5A), which leads to faster yeast growth in Histidine deprived medium (FIG. 5B). A library of 2,640 heterocyclic commercial chemical compounds as described previously was screened (BOUQUIER et al., see above) for molecules able to inhibit growth of Dock5 DHR2-expressing yeasts in Histidine deprived medium without affecting growth in Histidine complemented medium. C21: N-(3,5-dichlorophenyl)benzenesulfonamide was then identified (FIG. 5C). […] In parallel, control OCs grown in the presence of DMSO or 25 μM C21 were stained for TRAP to ascertain C21 was not toxic (not shown).

In the case of `O=S(=O)(Nc1cc(Cl)cc(Cl)c1)c1ccccc1` [C21, N-(3,5-dichlorophenyl)benzenesulfonamide], the “Bone mass (BV/TV, right distal femur, micro-tomography) of mice having undergone ovariectomy” value ([1]; experiment 1, 5 mg/d/kg, retro-orbital sinus injection) is reported as “not reduced”, the “Bone mass of OVX animals compared with SHAM animals” value ([1]; experiment 2, 15 mg/d/kg, intraperitoneal injection) is reported as “not significantly different” and the “Concentrations provoking OC death” value [2] is reported as “above 25 μM”. The “Toxicity to OCs by TRAP staining” value [3] was “not toxic”.
